Measurements reported in patent publication US20230085307A1, “PYRIDAZINONE COMPOUND AND HERBICIDE” (NISSAN CHEMICAL CORPORATION, priority 2019, published 2023).

Key:
persian speedwell [1] = experiment: Test Example 4: herbicidal effect by soil treatment (Table 19, symbol R); type: in vivo, Persian speedwell (Veronica persica); settings: AAH 320 g/ha
How it was run: (§1)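 Soil-surface application: an emulsion agent diluted with water to the predetermined dose is sprayed uniformly over seeds lying under roughly 1.5 cm of sterilized diluvial soil. Boxes stay in a greenhouse at 25° C. to 30° C. Three weeks later, each species is graded on previously defined criteria.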

barnyard grass [2] = experiment: Test Example 4: herbicidal effect by soil treatment (Table 19, symbol H); type: in vivo, barnyard grass (Echinochloa crus-galli); settings: AAH 320 g/ha
How it was run: as §1

wild oat [3] = experiment: Test Example 4: herbicidal effect by soil treatment (Table 19, symbol I); type: in vivo, wild oat (Avena fatua); settings: AAH 320 g/ha
How it was run: as §1

velvetleaf [4] = experiment: Test Example 5: herbicidal effect by foliage application, plastic box (Table 20, symbol M); type: in vivo, velvetleaf (Abutilon theophrasti); settings: for Herbicidal effect by foliage application, M: velvetleaf: amount of applied herbicide 320 g/ha, foliage application after 14-day growth, evaluated three weeks after application
How it was run: (§2)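 Sow seeds spot-wise in sterilized diluvial soil; cover with ~1.5 cm soil. Grow 14 days in greenhouse, 25° C. to 30° C. Spray foliage with emulsion diluted to predetermined amount. Rate effect after 3 weeks.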

windgrass [5] = experiment: Test Example 5: herbicidal effect by foliage application, plastic box (Table 20, symbol L); type: in vivo, windgrass (Apera spica-venti); settings: for Herbicidal effect by foliage application, L: windgrass: amount of applied herbicide 320 g/ha, foliage application after 14-day growth, evaluated three weeks after application
How it was run: as §2

green foxtail [6] = experiment: Test Example 4: herbicidal effect by soil treatment (Table 19, symbol G); type: in vivo, green foxtail (Setaria viridis); settings: AAH 320 g/ha
How it was run: as §1

barnyard grass [7] = experiment: Test Example 3: herbicidal effect by foliage application, Wagner pot (Table 18, symbol H); type: in vivo, barnyard grass (Echinochloa crus-galli); settings: 320 g/ha
How it was run: (§3)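 Plants were sown in alluvial soil held under 0.1–0.5 cm standing water and grown 14 days in a greenhouse at 25–30 °C. An emulsifiable formulation, water-diluted to the set dose, was then sprayed onto the foliage, and effects were scored three weeks later using previously defined criteria.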

green foxtail [8] = experiment: Test Example 5: herbicidal effect by foliage application, plastic box (Table 20, symbol G); type: in vivo, green foxtail (Setaria viridis); settings: for Herbicidal effect by foliage application, G: green foxtail: amount of applied herbicide 320 g/ha, foliage application after 14-day growth, evaluated three weeks after application
How it was run: as §2

chickweed [9] = experiment: Test Example 5: herbicidal effect by foliage application, plastic box (Table 20, symbol P); type: in vivo, common chickweed (Stellaria media); settings: for Herbicidal effect by foliage application, P: chickweed: amount of applied herbicide 320 g/ha, foliage application after 14-day growth, evaluated three weeks after application
How it was run: as §2

redroot pigweed [10] = experiment: Test Example 5: herbicidal effect by foliage application, plastic box (Table 20, symbol N); type: in vivo, redroot pigweed (Amaranthus retroflexus); settings: for Herbicidal effect by foliage application, N: redroot pigweed: amount of applied herbicide 320 g/ha, foliage application after 14-day growth, evaluated three weeks after application
How it was run: as §2

blackgrass = experiment: Test Example 5: herbicidal effect by foliage application, plastic box (Table 20, symbol J); type: in vivo, blackgrass (Alopecurus myosuroides); settings: for Herbicidal effect by foliage application, J: blackgrass: amount of applied herbicide 320 g/ha, foliage application after 14-day growth, evaluated three weeks after application
How it was run: as §2

windgrass [11] = experiment: Test Example 4: herbicidal effect by soil treatment (Table 19, symbol L); type: in vivo, windgrass (Apera spica-venti); settings: AAH 320 g/ha
How it was run: as §1

Italian ryegrass [12] = experiment: Test Example 4: herbicidal effect by soil treatment (Table 19, symbol K); type: in vivo, Italian ryegrass (Lolium multiflorum); settings: AAH 320 g/ha
How it was run: as §1

Italian ryegrass [13] = experiment: Test Example 5: herbicidal effect by foliage application, plastic box (Table 20, symbol K); type: in vivo, Italian ryegrass (Lolium multiflorum); settings: for Herbicidal effect by foliage application, K: Italian ryegrass: amount of applied herbicide 320 g/ha, foliage application after 14-day growth, evaluated three weeks after application
How it was run: as §2

lambsquarters [14] = experiment: Test Example 4: herbicidal effect by soil treatment (Table 19, symbol O); type: in vivo, lambsquarters (Chenopodium album); settings: AAH 320 g/ha
How it was run: as §1

lambsquarters [15] = experiment: Test Example 5: herbicidal effect by foliage application, plastic box (Table 20, symbol O); type: in vivo, lambsquarters (Chenopodium album); settings: for Herbicidal effect by foliage application, O: lambsquarters: amount of applied herbicide 320 g/ha, foliage application after 14-day growth, evaluated three weeks after application
How it was run: as §2

velvetleaf [16] = experiment: Test Example 4: herbicidal effect by soil treatment (Table 19, symbol M); type: in vivo, velvetleaf (Abutilon theophrasti); settings: AAH 320 g/ha
How it was run: as §1

wild oat [17] = experiment: Test Example 5: herbicidal effect by foliage application, plastic box (Table 20, symbol I); type: in vivo, wild oat (Avena fatua); settings: for Herbicidal effect by foliage application, I: wild oat: amount of applied herbicide 320 g/ha, foliage application after 14-day growth, evaluated three weeks after application
How it was run: as §2

southern crabgrass [18] = experiment: Test Example 5: herbicidal effect by foliage application, plastic box (Table 20, symbol F); type: in vivo, southern crabgrass (Digitaria ciliaris); settings: for Herbicidal effect by foliage application, F: southern crabgrass: amount of applied herbicide 320 g/ha, foliage application after 14-day growth, evaluated three weeks after application
How it was run: as §2

southern crabgrass [19] = experiment: Test Example 4: herbicidal effect by soil treatment (Table 19, symbol F); type: in vivo, southern crabgrass (Digitaria ciliaris); settings: AAH 320 g/ha
How it was run: as §1

chickweed [20] = experiment: Test Example 4: herbicidal effect by soil treatment (Table 19, symbol P); type: in vivo, common chickweed (Stellaria media); settings: AAH 320 g/ha
How it was run: as §1

rice flat sedge = experiment: Test Example 3: herbicidal effect by foliage application, Wagner pot (Table 18, symbol E); type: in vivo, rice flat sedge (Cyperus iria); settings: 320 g/ha
How it was run: as §3

Chinese sprangletop = experiment: Test Example 3: herbicidal effect by foliage application, Wagner pot (Table 18, symbol D); type: in vivo, chinese sprangletop (Leptochloa chinensis); settings: 320 g/ha
How it was run: as §3

barnyard grass [21] = experiment: Test Example 5: herbicidal effect by foliage application, plastic box (Table 20, symbol H); type: in vivo, barnyard grass (Echinochloa crus-galli); settings: for Herbicidal effect by foliage application, H: barnyard grass: amount of applied herbicide 320 g/ha, foliage application after 14-day growth, evaluated three weeks after application
How it was run: as §2

false cleavers = experiment: Test Example 5: herbicidal effect by foliage application, plastic box (Table 20, symbol Q); type: in vivo, false cleavers (Galium spurium); settings: for Herbicidal effect by foliage application, Q: false cleavers: amount of applied herbicide 320 g/ha, foliage application after 14-day growth, evaluated three weeks after application
How it was run: as §2

redroot pigweed [22] = experiment: Test Example 4: herbicidal effect by soil treatment (Table 19, symbol N); type: in vivo, redroot pigweed (Amaranthus retroflexus); settings: AAH 320 g/ha
How it was run: as §1

persian speedwell [23] = experiment: Test Example 5: herbicidal effect by foliage application, plastic box (Table 20, symbol R); type: in vivo, Persian speedwell (Veronica persica); settings: for Herbicidal effect by foliage application, R: persian speedwell: amount of applied herbicide 320 g/ha, foliage application after 14-day growth, evaluated three weeks after application
How it was run: as §2

[24] = foliage application, AAH 320 g/ha, three weeks after application

CCCC(=O)Oc1c(OC)nn(C)c(=O)c1-c1c(-c2cc(F)c(F)c(F)c2)sc2ccccc12 [1-187]
R: persian speedwell, herbicidal effect rating (persian speedwell [1]): 4 (Herbicidal rate of 70% or more and less than 90%)
H: barnyard grass, herbicidal effect rating (barnyard grass [2]): 0 (Herbicidal rate of 5% or less (almost no effect))
I: wild oat, herbicidal effect rating (wild oat [3]): 0 (Herbicidal rate of 5% or less (almost no effect))
M: velvetleaf, herbicidal effect (velvetleaf [4]; [24]): 4 (Herbicidal rate of 70% or more and less than 90%)
L: windgrass, herbicidal effect (windgrass [5]; [24]): 0 (Herbicidal rate of 5% or less (almost no effect))
G: green foxtail, herbicidal effect rating (green foxtail [6]): 0 (Herbicidal rate of 5% or less (almost no effect))
herbicidal effect on H (barnyard grass), rating 0-5 (barnyard grass [7]): 0 (Herbicidal rate of 5% or less (almost no effect))
G: green foxtail, herbicidal effect (green foxtail [8]; [24]): 0 (Herbicidal rate of 5% or less (almost no effect))
P: chickweed, herbicidal effect (chickweed [9]; [24]): 3 (Herbicidal rate of 40% or more and less than 70%)
N: redroot pigweed, herbicidal effect (redroot pigweed [10]; [24]): 4 (Herbicidal rate of 70% or more and less than 90%)
J: blackgrass, herbicidal effect (blackgrass; [24]): 0 (Herbicidal rate of 5% or less (almost no effect))
L: windgrass, herbicidal effect rating (windgrass [11]): 0 (Herbicidal rate of 5% or less (almost no effect))
K: Italian ryegrass, herbicidal effect rating (Italian ryegrass [12]): 0 (Herbicidal rate of 5% or less (almost no effect))
K: Italian ryegrass, herbicidal effect (Italian ryegrass [13]; [24]): 0 (Herbicidal rate of 5% or less (almost no effect))
O: lambsquarters, herbicidal effect rating (lambsquarters [14]): 4 (Herbicidal rate of 70% or more and less than 90%)
O: lambsquarters, herbicidal effect (lambsquarters [15]; [24]): 5 (Herbicidal rate of 90% or more (almost completely withered))
M: velvetleaf, herbicidal effect rating (velvetleaf [16]): 0 (Herbicidal rate of 5% or less (almost no effect))
I: wild oat, herbicidal effect (wild oat [17]; [24]): 0 (Herbicidal rate of 5% or less (almost no effect))
F: southern crabgrass, herbicidal effect (southern crabgrass [18]; [24]): 0 (Herbicidal rate of 5% or less (almost no effect))
F: southern crabgrass, herbicidal effect rating (southern crabgrass [19]): 0 (Herbicidal rate of 5% or less (almost no effect))
P: chickweed, herbicidal effect rating (chickweed [20]): 5 (Herbicidal rate of 90% or more (almost completely withered))
herbicidal effect on E (rice flat sedge), rating 0-5 (rice flat sedge): 3 (Herbicidal rate of 40% or more and less than 70%)
herbicidal effect on D (Chinese sprangletop), rating 0-5 (Chinese sprangletop): 0 (Herbicidal rate of 5% or less (almost no effect))
H: barnyard grass, herbicidal effect (barnyard grass [21]; [24]): 0 (Herbicidal rate of 5% or less (almost no effect))
Q: false cleavers, herbicidal effect (false cleavers; [24]): 0 (Herbicidal rate of 5% or less (almost no effect))
N: redroot pigweed, herbicidal effect rating (redroot pigweed [22]): 0 (Herbicidal rate of 5% or less (almost no effect))
R: persian speedwell, herbicidal effect (persian speedwell [23]; [24]): 5 (Herbicidal rate of 90% or more (almost completely withered))

CSc1ccccc1-c1sc2c(Cl)cccc2c1-c1c(O)c(C)nn(C)c1=O [4-086]
Herbicidal effect by foliage application, M: velvetleaf (velvetleaf [4]): 3 (Herbicidal rate of 40% or more and less than 70%)
Herbicidal effect by foliage application, L: windgrass (windgrass [5]): 4 (Herbicidal rate of 70% or more and less than 90%)
herbicidal effect on barnyard grass (H) (barnyard grass [7]): 4 (Herbicidal rate of 70% or more and less than 90%)
Herbicidal effect by foliage application, G: green foxtail (green foxtail [8]): 3 (Herbicidal rate of 40% or more and less than 70%)
Herbicidal effect by foliage application, P: chickweed (chickweed [9]): 5 (Herbicidal rate of 90% or more (almost completely withered))
Herbicidal effect by foliage application, N: redroot pigweed (redroot pigweed [10]): 4 (Herbicidal rate of 70% or more and less than 90%)
Herbicidal effect by foliage application, J: blackgrass (blackgrass): 0 (Herbicidal rate of 5% or less (almost no effect))
Herbicidal effect by foliage application, K: Italian ryegrass (Italian ryegrass [13]): 0 (Herbicidal rate of 5% or less (almost no effect))
Herbicidal effect by foliage application, O: lambsquarters (lambsquarters [15]): 3 (Herbicidal rate of 40% or more and less than 70%)
Herbicidal effect by foliage application, I: wild oat (wild oat [17]): 0 (Herbicidal rate of 5% or less (almost no effect))
Herbicidal effect by foliage application, F: southern crabgrass (southern crabgrass [18]): 0 (Herbicidal rate of 5% or less (almost no effect))
herbicidal effect on rice flat sedge (E) (rice flat sedge): 3 (Herbicidal rate of 40% or more and less than 70%)
herbicidal effect on Chinese sprangletop (D) (Chinese sprangletop): 3 (Herbicidal rate of 40% or more and less than 70%)
Herbicidal effect by foliage application, H: barnyard grass (barnyard grass [21]): 1 (Herbicidal rate of 5% or more and less than 20%)
Herbicidal effect by foliage application, Q: false cleavers (false cleavers): 1 (Herbicidal rate of 5% or more and less than 20%)
Herbicidal effect by foliage application, R: persian speedwell (persian speedwell [23]): 5 (Herbicidal rate of 90% or more (almost completely withered))

CCSc1ccccc1-c1sc2c(C)cccc2c1-c1c(O)c(C)nn(C)c1=O [4-120]
Herbicidal effect by foliage application, M: velvetleaf (velvetleaf [4]): 0 (Herbicidal rate of 5% or less (almost no effect))
Herbicidal effect by foliage application, L: windgrass (windgrass [5]): 0 (Herbicidal rate of 5% or less (almost no effect))
herbicidal effect on barnyard grass (H) (barnyard grass [7]): 2 (Herbicidal rate of 20% or more and less than 40%)
Herbicidal effect by foliage application, G: green foxtail (green foxtail [8]): 0 (Herbicidal rate of 5% or less (almost no effect))
Herbicidal effect by foliage application, P: chickweed (chickweed [9]): 5 (Herbicidal rate of 90% or more (almost completely withered))
Herbicidal effect by foliage application, N: redroot pigweed (redroot pigweed [10]): 0 (Herbicidal rate of 5% or less (almost no effect))
Herbicidal effect by foliage application, J: blackgrass (blackgrass): 0 (Herbicidal rate of 5% or less (almost no effect))
Herbicidal effect by foliage application, K: Italian ryegrass (Italian ryegrass [13]): 0 (Herbicidal rate of 5% or less (almost no effect))
Herbicidal effect by foliage application, O: lambsquarters (lambsquarters [15]): 0 (Herbicidal rate of 5% or less (almost no effect))
Herbicidal effect by foliage application, I: wild oat (wild oat [17]): 0 (Herbicidal rate of 5% or less (almost no effect))
Herbicidal effect by foliage application, F: southern crabgrass (southern crabgrass [18]): 0 (Herbicidal rate of 5% or less (almost no effect))
herbicidal effect on rice flat sedge (E) (rice flat sedge): 2 (Herbicidal rate of 20% or more and less than 40%)
herbicidal effect on Chinese sprangletop (D) (Chinese sprangletop): 3 (Herbicidal rate of 40% or more and less than 70%)
Herbicidal effect by foliage application, H: barnyard grass (barnyard grass [21]): 0 (Herbicidal rate of 5% or less (almost no effect))
Herbicidal effect by foliage application, Q: false cleavers (false cleavers): 0 (Herbicidal rate of 5% or less (almost no effect))
Herbicidal effect by foliage application, R: persian speedwell (persian speedwell [23]): 5 (Herbicidal rate of 90% or more (almost completely withered))
